Values of other authors as cited in US10894960B2, “Compositions and methods for nucleic acid transfer” (Children's Hospital Medical Center, priority 2016, dated 2021).

What was measured:
SUR1 = SUR1 (Homo sapiens, UniProt Q09428); conditions: Target SUR1, gene symbol ABCC8
TOP2 beta = TOP2 beta (Homo sapiens, UniProt Q02880); conditions: Target TOP2 beta, gene symbol TOP2B
PARP-1 = PARP-1 (Homo sapiens, UniProt P09874); conditions: Target PARP-1, gene symbol PARP1
NR3A = NR3A (Homo sapiens, UniProt Q8TCU5); conditions: Target NR3A, gene symbol GRIN3A
Sequence of NR3A (Q8TCU5 24-1115, species assumed, other chains not shown): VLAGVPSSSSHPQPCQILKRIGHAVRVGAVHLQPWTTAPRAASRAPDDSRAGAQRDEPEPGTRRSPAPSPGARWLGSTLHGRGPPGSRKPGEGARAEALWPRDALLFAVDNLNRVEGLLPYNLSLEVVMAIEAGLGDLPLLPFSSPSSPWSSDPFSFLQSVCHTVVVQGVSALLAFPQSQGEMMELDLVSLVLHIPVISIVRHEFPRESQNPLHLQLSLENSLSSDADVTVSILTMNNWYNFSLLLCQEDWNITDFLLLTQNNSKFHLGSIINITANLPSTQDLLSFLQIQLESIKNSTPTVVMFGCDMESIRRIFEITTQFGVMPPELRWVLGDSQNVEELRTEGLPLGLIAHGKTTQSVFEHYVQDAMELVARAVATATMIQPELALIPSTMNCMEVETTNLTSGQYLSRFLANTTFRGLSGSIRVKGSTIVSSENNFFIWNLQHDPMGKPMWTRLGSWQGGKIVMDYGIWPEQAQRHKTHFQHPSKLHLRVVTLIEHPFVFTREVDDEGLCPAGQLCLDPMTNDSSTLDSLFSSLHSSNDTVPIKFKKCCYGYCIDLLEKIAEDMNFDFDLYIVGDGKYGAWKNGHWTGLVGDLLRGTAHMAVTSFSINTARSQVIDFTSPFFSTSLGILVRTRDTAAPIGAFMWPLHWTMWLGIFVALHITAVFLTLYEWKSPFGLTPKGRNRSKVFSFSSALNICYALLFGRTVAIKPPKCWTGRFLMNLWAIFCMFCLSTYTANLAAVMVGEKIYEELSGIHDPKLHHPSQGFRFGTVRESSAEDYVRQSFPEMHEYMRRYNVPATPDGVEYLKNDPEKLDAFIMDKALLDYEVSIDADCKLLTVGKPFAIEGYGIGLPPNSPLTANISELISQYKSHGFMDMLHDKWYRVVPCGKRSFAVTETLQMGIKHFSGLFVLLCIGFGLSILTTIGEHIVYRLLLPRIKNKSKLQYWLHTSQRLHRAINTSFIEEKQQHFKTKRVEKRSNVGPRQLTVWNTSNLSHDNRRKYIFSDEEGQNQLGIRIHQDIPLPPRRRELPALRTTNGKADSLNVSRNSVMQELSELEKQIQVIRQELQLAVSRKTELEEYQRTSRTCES

Sequence of SUR1 (Q09428 whole entry, species assumed): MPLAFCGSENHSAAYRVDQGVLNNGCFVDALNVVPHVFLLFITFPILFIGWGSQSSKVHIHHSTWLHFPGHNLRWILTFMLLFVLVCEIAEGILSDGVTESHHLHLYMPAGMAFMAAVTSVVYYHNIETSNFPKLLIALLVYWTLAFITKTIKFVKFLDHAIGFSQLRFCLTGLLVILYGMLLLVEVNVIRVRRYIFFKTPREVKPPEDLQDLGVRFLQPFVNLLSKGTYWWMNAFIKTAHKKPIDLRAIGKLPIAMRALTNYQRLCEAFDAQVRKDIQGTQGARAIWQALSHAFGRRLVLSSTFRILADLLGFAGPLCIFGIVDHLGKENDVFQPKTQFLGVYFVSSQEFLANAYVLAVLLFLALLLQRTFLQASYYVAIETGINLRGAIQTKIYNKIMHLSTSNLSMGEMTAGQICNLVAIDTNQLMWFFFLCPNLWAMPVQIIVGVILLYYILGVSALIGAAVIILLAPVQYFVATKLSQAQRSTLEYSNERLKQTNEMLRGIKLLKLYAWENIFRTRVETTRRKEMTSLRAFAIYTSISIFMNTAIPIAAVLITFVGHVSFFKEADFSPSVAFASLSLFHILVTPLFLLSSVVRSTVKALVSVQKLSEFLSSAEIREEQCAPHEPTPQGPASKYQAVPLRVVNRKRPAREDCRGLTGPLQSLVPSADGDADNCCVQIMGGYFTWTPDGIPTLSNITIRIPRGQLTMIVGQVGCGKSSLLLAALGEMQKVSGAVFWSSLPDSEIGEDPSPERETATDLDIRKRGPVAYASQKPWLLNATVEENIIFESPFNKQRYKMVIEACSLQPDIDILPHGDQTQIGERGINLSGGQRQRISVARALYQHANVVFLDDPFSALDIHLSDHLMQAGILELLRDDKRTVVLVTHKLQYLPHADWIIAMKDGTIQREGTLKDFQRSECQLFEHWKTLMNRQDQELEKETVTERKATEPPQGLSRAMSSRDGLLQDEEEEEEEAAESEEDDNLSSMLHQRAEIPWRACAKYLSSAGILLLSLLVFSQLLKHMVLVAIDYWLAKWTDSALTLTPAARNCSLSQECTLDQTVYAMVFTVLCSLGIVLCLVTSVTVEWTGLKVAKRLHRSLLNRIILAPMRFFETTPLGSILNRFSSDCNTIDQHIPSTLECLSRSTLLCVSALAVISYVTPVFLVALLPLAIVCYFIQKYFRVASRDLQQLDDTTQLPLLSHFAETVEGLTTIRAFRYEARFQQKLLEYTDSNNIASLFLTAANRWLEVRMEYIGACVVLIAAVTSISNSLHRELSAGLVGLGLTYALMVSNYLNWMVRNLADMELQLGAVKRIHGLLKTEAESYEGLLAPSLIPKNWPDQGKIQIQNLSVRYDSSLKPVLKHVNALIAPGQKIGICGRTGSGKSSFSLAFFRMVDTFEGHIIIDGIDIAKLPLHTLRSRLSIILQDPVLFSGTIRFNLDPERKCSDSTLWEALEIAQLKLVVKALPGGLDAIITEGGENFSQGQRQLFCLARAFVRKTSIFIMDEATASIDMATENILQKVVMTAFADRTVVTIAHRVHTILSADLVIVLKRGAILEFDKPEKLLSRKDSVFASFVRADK
Sequence of SUR1 (Q14654 whole entry partner, species assumed): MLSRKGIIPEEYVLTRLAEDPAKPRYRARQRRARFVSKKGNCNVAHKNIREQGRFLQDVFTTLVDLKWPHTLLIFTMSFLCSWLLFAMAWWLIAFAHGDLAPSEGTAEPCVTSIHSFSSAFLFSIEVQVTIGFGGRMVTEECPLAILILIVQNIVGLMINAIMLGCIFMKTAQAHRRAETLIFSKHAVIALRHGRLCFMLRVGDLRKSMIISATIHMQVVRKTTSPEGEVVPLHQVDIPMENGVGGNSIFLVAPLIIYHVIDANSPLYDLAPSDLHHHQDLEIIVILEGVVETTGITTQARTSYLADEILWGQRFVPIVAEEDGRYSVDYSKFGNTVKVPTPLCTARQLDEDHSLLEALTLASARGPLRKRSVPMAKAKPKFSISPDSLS
Sequence of TOP2 beta (Q02880 whole entry): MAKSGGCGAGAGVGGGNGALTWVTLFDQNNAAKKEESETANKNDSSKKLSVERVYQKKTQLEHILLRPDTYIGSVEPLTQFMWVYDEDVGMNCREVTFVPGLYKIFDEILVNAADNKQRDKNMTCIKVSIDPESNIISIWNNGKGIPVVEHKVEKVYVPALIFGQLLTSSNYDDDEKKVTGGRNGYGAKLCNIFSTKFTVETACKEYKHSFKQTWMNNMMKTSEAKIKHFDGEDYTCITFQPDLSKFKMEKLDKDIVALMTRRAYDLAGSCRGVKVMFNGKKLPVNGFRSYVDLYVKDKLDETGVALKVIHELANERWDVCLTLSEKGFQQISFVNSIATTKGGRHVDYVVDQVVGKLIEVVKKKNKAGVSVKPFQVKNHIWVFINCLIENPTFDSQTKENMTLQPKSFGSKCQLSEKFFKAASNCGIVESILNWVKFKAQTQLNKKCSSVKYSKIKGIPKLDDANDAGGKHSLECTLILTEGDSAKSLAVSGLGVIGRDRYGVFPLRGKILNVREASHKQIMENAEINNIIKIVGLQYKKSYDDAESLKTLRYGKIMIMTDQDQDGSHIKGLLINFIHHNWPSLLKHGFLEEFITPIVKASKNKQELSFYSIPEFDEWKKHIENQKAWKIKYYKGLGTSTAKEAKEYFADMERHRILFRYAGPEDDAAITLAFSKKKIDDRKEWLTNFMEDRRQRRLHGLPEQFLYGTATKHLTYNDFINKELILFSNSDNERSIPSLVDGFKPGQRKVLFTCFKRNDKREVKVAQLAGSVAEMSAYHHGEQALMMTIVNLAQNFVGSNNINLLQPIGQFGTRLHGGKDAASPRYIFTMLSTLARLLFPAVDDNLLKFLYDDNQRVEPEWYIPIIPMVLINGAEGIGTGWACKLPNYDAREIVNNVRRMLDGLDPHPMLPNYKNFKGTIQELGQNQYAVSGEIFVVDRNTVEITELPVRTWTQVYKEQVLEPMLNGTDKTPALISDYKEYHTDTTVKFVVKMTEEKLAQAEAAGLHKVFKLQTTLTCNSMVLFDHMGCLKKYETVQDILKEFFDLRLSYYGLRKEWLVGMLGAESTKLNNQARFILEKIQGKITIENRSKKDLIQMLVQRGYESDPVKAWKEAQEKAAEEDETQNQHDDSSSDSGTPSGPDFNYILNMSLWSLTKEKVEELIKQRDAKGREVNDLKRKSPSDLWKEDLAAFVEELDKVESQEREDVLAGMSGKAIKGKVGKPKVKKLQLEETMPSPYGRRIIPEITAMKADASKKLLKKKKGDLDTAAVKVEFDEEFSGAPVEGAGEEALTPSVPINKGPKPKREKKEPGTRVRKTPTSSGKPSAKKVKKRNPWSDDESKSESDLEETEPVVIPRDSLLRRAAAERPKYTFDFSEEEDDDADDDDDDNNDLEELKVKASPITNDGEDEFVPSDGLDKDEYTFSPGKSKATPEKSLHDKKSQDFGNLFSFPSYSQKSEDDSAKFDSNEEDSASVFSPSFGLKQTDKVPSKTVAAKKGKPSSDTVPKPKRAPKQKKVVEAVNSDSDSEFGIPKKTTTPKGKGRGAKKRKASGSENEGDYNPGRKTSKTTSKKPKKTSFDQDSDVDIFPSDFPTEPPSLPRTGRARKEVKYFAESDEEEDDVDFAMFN

SMILES | Effect (SUR1) | Effect (TOP2 beta) | other results
CCOc1cc(CC(=O)N[C@@H](CC(C)C)c2ccccc2N2CCCCC2)ccc1C(=O)O (racemic) [(R/S)-Repaglinide] | Inhibition |  | 
CC(=O)c1ccc(S(=O)(=O)NC(=O)NC2CCCCC2)cc1 [Acetohexamide] | Activation |  | 
C[C@@H]1O[C@@H](O[C@H]2C[C@](O)(C(=O)CO)Cc3c(O)c4c(c(O)c32)C(=O)c2ccccc2C4=O)[C@H](I)[C@H](O)[C@H]1O [Annamycin] |  | Inhibition | 
O=[As]O[As]=O (stereo not shown) [As(,2)O(,3)] |  |  | Effect (PARP-1): Inhibition
CC1=NS(=O)(=O)c2cc(Cl)ccc2N1 [Diazoxide] | Activation |  | 
CO[C@@H]1[C@@H](N)[C@@H](O[C@H]2[C@H](Oc3cccc4c(O)c5c(=O)oc6ccc(C)c7c(=O)oc(c34)c5c67)O[C@H](C)[C@H](O)[C@]2(C)O)O[C@H](C)[C@@H]1O [Elsamitrucin] |  | Inhibition | 
O=C(Nc1ccc2ncccc2c1)C(=O)c1cn(Cc2ccc(Cl)cc2)c2ccccc12 [Entasobulin] |  | Inhibition | 
COc1cc([C@@H]2c3cc4c(cc3[C@@H](O[C@@H]3O[C@@H]5CO[C@@H](C)O[C@H]5[C@H](O)[C@H]3O)[C@H]3COC(=O)[C@H]23)OCO4)cc(OC)c1O [Etoposide] |  | Inhibition | 
CCC1=C(C)CN(C(=O)NCCc2ccc(S(=O)(=O)NC(=O)N[C@H]3CC[C@H](C)CC3)cc2)C1=O [Glimepiride] | Inhibition |  | 
Cc1cnc(NCCCN(C)C)c2c1[nH]c1ccc3cc(O)ccc3c12 [Intoplicine] |  | Inhibition | 
CNC1(c2ccccc2Cl)CCCCC1=O (stereo not shown) [Ketamine] |  |  | Effect (NR3A): Inhibition
CC12CC3CC(C)(C1)CC(N)(C3)C2 [Memantine] |  |  | Effect (NR3A): Inhibition
COc1ccc2c(c[n+](C)c3c4cc5c(cc4ccc23)OCO5)c1O [NK109] |  | Inhibition | 
COc1cc([C@@H]2c3cc4c(cc3[C@@H](CCN(C)CCN(C)C)[C@H]3COC(=O)[C@H]23)OCO4)cc(OC)c1O [TOP53] |  | Inhibition | 
C1CCC2(C1)C1CN(CC3CC3)CC2CN(CC2CC2)C1 [Tedisamil] | Inhibition |  | 
COc1cc([C@@H]2c3cc4c(cc3[C@@H](O[C@@H]3O[C@@H]5CO[C@@H](c6cccs6)O[C@H]5[C@H](O)[C@H]3O)[C@H]3COC(=O)[C@H]23)OCO4)cc(OC)c1O [Teniposide] |  | Inhibition | 
